pIC50: −log10 of the molar value. Converted amounts (≈) assume the structure as drawn.
Key:
[1] = target: Ribosomal protein S6 kinase beta-1 (Homo sapiens) (UniProt P23443); assay: Inhibition of human S6K1 at 100 nM
[2] = target: Ribosomal protein S6 kinase alpha-3 (Homo sapiens) (UniProt P51812); assay: Inhibition of human RSK2 at 100 nM
[3] = target: SRSF protein kinase 1 (Homo sapiens) (UniProt Q96SB4); assay: Inhibition of human SRPK1 at 100 nM
[4] = target: Glycogen synthase kinase-3 beta (Homo sapiens) (UniProt P49841); assay: Inhibition of human GSK3beta at 100 nM
[5] = target: Fibroblast growth factor receptor 1 (Homo sapiens) (UniProt P11362); assay: Inhibition of human FGFR1 at 100 nM
[6] = target: Insulin receptor-related protein (Homo sapiens) (UniProt P14616); assay: Inhibition of human IRR at 100 nM
Insulin receptor-related protein (Homo sapiens), sequence (P14616 27-742 limits assumed): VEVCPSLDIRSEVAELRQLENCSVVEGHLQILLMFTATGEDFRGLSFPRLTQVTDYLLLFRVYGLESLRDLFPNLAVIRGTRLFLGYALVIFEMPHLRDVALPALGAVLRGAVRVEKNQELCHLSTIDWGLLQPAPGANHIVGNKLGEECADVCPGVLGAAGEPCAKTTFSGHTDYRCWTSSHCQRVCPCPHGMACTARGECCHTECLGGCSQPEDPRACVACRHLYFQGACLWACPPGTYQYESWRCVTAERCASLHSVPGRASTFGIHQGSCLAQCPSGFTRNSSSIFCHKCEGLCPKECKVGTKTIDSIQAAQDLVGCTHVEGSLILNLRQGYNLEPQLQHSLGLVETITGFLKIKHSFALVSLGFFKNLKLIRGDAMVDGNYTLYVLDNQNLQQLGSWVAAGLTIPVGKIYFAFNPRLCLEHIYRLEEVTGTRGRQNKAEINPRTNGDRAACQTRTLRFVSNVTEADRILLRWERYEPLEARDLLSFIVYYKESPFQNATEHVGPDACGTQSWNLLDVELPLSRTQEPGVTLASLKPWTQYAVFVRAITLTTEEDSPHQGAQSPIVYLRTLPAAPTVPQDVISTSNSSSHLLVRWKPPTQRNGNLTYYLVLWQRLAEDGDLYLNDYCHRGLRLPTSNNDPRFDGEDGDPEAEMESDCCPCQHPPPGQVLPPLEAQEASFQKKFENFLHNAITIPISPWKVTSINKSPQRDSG
Insulin receptor-related protein (Homo sapiens), sequence (P14616 747-1297 limits assumed): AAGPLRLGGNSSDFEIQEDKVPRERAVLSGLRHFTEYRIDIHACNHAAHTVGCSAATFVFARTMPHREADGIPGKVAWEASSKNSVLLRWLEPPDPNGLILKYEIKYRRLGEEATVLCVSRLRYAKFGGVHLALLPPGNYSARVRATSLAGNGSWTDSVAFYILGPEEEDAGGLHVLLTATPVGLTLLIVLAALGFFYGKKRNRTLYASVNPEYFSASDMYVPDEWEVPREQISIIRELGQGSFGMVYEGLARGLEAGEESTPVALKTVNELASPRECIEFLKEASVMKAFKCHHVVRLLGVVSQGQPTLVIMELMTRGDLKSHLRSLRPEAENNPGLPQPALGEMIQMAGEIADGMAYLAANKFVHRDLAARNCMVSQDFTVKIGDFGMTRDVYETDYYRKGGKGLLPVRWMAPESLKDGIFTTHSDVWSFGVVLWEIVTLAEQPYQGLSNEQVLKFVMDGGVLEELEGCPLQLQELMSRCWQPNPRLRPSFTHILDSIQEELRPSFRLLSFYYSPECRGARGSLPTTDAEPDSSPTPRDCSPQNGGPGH

[7] = Lipophilicity, log D of the compound at pH 7.4; details: buffer
[8] = target: NUAK family SNF1-like kinase 1 (Homo sapiens) (UniProt O60285); assay: Inhibition of human NUAK1 at 100 nM
[9] = target: AMP-activated protein kinase, AMPK (Homo sapiens) (UniProt P54646+O43741+P54619+Q9UGJ0+Q9Y478+Q13131+Q9UGI9); assay: Inhibition of human AMPK at 100 nM; format: protein-complex assay
[10] = target: Mitogen-activated protein kinase kinase kinase kinase 2 (Homo sapiens) (UniProt Q12851); assay: Inhibition of human GCK at 100 nM
[11] = target: Proto-oncogene tyrosine-protein kinase Src (Homo sapiens) (UniProt P12931); assay: Inhibition of human Src at 100 nM
[12] = target: MAP kinase-activated protein kinase 5 (Homo sapiens) (UniProt Q8IW41); assay: Inhibition of human PRAK at 100 nM
[13] = target: Myosin light chain kinase, smooth muscle (Homo sapiens) (UniProt Q15746); assay: Inhibition of human SmMLCK at 100 nM
Myosin light chain kinase, smooth muscle (Homo sapiens), sequence (Q15746 whole entry): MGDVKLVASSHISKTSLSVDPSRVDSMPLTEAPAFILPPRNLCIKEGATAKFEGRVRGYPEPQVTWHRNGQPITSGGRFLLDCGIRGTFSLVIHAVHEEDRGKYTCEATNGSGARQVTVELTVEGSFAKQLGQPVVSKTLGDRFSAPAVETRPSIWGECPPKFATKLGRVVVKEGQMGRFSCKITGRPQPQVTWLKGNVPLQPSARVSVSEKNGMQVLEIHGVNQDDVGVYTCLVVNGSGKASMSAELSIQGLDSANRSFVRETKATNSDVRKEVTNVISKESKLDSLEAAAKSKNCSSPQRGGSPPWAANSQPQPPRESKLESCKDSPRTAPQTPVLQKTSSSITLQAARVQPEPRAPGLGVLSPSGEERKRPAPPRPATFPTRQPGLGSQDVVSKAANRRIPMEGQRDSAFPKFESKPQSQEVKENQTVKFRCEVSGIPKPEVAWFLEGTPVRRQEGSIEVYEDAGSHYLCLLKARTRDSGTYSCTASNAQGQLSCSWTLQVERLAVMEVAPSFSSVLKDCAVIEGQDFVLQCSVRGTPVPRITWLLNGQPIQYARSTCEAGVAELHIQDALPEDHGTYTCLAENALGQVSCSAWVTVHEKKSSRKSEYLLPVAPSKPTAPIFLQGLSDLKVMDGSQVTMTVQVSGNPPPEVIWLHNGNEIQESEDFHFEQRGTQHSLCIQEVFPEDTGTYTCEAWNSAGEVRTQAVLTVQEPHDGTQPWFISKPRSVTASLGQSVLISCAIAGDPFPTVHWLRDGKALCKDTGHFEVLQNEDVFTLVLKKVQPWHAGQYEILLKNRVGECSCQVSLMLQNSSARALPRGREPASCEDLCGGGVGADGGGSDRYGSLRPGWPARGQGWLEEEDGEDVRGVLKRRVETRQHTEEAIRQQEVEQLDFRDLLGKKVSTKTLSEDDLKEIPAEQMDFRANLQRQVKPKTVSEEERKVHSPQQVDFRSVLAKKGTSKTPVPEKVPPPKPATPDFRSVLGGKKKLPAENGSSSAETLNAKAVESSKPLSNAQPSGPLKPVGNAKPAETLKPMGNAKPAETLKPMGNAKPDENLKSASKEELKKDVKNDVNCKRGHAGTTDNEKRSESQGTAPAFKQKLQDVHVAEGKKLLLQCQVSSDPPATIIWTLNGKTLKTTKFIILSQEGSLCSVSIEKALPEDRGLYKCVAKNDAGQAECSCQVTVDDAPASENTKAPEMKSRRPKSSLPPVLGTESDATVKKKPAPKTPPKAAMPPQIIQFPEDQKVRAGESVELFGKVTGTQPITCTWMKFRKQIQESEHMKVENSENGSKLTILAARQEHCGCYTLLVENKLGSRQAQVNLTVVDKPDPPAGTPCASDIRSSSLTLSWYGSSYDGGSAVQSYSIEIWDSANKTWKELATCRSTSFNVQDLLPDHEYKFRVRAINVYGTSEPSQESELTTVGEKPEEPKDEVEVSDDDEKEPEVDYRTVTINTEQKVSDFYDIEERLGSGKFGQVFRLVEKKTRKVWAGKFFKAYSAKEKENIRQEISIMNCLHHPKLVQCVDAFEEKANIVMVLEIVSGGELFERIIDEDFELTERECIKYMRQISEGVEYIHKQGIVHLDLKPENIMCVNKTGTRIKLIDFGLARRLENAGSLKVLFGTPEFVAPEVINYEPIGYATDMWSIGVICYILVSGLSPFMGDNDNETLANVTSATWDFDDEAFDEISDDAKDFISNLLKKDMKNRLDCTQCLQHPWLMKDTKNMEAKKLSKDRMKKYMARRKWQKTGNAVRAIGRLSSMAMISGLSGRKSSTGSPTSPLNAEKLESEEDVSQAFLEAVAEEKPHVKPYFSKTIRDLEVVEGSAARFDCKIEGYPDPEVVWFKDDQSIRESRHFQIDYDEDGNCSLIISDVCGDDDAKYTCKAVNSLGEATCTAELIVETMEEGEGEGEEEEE

[14] = target: Maternal embryonic leucine zipper kinase (Homo sapiens) (UniProt Q14680); assay: Inhibition of human MELK at 100 nM
[15] = target: Ephrin type-B receptor 3 (Homo sapiens) (UniProt P54753); assay: Inhibition of human EPHB3 at 100 nM
[16] = target: MAP kinase-interacting serine/threonine-protein kinase 2 (Homo sapiens) (UniProt Q9HBH9); assay: Inhibition of human MNK2 at 100 nM
MAP kinase-interacting serine/threonine-protein kinase 2 (Homo sapiens), sequence (Q9HBH9 whole entry, looked up): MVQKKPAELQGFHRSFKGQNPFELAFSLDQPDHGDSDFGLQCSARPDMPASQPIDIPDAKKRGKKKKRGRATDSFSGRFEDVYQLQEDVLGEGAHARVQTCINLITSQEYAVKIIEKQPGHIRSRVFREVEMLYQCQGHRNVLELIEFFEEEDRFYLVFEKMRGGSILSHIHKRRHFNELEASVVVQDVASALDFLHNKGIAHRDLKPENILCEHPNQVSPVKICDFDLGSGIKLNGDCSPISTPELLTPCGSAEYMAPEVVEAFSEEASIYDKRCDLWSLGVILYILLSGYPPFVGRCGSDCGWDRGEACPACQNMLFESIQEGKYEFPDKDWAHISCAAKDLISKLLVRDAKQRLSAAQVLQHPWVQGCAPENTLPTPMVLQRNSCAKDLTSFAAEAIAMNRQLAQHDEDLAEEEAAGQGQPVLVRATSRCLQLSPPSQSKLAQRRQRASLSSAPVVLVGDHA

[17] = target: cGMP-dependent protein kinase (Plasmodium falciparum, UniProt W7JX98); assay: Inhibition of Plasmodium falciparum protein kinase G
[18] = target: Phosphorylase kinase (Homo sapiens) (UniProt P15735+P46020+P46019+Q93100+Q16816); assay: Inhibition of human PHK at 100 nM; format: protein-complex assay
[19] = target: Serine/threonine-protein kinase 3 (Homo sapiens) (UniProt Q13188); assay: Inhibition of human MST2 at 100 nM
[20] = target: Serine/threonine-protein kinase pim-1 (Homo sapiens) (UniProt P11309); assay: Inhibition of human PIM1 at 100 nM
Serine/threonine-protein kinase pim-1 (Homo sapiens), sequence (P11309 whole entry, looked up): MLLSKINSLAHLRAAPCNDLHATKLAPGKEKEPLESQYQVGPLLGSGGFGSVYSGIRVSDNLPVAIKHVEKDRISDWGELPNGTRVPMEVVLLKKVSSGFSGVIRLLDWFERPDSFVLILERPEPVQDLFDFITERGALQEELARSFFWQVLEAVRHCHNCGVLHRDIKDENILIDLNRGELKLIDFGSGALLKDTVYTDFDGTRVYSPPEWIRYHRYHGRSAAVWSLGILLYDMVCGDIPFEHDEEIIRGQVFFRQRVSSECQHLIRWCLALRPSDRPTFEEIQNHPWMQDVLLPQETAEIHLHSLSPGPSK

[21] = target: Tyrosine-protein kinase JAK2 (Homo sapiens) (UniProt O60674); assay: Inhibition of human JAK2 at 100 nM
Tyrosine-protein kinase JAK2 (Homo sapiens), sequence (O60674 whole entry): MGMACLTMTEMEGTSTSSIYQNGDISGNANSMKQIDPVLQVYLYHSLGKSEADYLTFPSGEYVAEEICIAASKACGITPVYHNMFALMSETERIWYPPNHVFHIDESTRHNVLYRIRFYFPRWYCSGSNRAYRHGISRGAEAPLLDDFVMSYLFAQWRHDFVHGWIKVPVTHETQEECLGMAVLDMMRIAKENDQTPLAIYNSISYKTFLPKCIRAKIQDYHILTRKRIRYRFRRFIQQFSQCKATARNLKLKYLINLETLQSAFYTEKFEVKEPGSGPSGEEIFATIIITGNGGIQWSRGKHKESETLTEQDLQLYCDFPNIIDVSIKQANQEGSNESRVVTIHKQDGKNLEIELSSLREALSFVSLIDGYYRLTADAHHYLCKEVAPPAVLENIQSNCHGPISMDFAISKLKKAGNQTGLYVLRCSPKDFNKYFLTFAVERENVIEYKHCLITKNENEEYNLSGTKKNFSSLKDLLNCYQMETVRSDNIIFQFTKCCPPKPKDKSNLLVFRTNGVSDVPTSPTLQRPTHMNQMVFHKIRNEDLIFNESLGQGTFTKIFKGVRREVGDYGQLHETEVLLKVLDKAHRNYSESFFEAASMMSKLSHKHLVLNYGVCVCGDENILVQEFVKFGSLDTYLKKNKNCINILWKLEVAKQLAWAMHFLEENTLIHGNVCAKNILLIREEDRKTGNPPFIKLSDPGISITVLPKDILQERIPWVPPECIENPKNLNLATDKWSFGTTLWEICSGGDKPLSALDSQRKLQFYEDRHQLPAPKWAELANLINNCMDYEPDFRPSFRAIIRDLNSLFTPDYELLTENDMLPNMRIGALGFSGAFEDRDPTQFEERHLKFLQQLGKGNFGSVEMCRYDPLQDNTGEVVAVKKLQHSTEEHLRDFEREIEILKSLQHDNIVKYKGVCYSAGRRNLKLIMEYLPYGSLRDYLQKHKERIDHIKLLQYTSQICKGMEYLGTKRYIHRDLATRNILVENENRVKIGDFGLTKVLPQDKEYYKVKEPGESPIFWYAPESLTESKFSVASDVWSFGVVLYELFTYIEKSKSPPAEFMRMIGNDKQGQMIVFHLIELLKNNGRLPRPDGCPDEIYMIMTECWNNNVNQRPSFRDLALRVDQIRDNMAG

[22] = Metabolic stability in human liver microsomes assessed as compound remaining after 40 mins; format: ADME, microsome; details: read-out: Stability
[23] = target: Eukaryotic elongation factor 2 kinase (Homo sapiens) (UniProt O00418); assay: Inhibition of human EF2K at 100 nM
[24] = target: CDK2/Cyclin A2 (Homo sapiens) (UniProt P24941+P20248); assay: Inhibition of human CDK2/Cyclin A at 100 nM; format: protein-complex assay
[25] = Kinetic solubility of the compound
[26] = target: Tyrosine-protein kinase BTK (Homo sapiens) (UniProt Q06187); assay: Inhibition of human BTK at 100 nM
[27] = target: T1, Inhibitor of nuclear factor kappa-B kinase subunit epsilon (Homo sapiens) (UniProt Q14164); details: at 100 nM
T1 sequence (whole entry): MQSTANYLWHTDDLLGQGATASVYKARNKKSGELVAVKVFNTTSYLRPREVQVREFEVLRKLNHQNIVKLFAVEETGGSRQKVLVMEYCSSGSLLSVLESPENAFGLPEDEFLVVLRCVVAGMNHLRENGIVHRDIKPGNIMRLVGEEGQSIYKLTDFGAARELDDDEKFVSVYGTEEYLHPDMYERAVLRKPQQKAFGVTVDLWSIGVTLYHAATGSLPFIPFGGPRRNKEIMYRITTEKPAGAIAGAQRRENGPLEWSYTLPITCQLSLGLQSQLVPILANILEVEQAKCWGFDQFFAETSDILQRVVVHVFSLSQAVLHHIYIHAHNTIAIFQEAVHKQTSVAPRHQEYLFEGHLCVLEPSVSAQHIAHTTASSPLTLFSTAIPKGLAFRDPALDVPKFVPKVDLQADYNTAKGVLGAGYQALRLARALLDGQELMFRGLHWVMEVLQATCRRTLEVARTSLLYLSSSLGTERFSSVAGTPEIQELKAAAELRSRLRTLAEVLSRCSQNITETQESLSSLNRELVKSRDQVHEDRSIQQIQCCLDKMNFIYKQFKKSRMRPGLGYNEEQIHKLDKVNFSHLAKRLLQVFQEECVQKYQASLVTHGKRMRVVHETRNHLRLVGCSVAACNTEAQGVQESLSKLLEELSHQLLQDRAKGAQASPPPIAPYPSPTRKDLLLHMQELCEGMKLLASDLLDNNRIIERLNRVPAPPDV
Description: Inhibition of human IKKepsilon at 100 nM

[28] = target: Serine/threonine-protein kinase N2 (Homo sapiens) (UniProt Q16513); assay: Inhibition of human PRK2 at 100 nM
[29] = Permeability of the compound by PAMPA

| SMILES | inhibition [1] | inhibition [2] | inhibition [3] | inhibition [4] | inhibition [5] | inhibition [6] | logD [7] | inhibition [8] | inhibition [10] | inhibition [11] | inhibition [12] | inhibition [13] | inhibition [14] | inhibition [15] | inhibition [16] | inhibition [18] | inhibition [19] | inhibition [20] | inhibition [21] | remaining at 40 min [22] | also measured |
| --- | --- | --- | --- | --- | --- | --- | --- | --- | --- | --- | --- | --- | --- | --- | --- | --- | --- | --- | --- | --- | --- |
| CN1CCC(c2nc(-c3cccc(S(C)(=O)=O)c3)c(-c3ccnc(Nc4ccc(N5CCNCC5)cc4)n3)s2)CC1 | < 70% | < 70% | < 70% | < 70% | < 70% | < 70% | 0.3 | < 70% | < 70% | < 70% | < 70% | < 70% | < 70% | < 70% | < 70% | < 70% | < 70% | < 70% | < 70% | 84% | inhibition [9]: < 70%; pIC50 [17]: 9.05; inhibition [23]: < 70%; inhibition [24]: < 70%; solubility kinetic [25]: 208 µM (≈ 123 µg/mL); inhibition [26]: < 70%; inhibition [27]: < 70%; inhibition [28]: < 70% |
| CN1CCC(c2nc(-c3ccc(F)c(NS(C)(=O)=O)c3)c(-c3ccnc(NCC4CC4)n3)s2)CC1 | < 70% | < 70% | < 70% | < 70% | < 70% | < 70% | 1.9 | < 70% | < 70% | < 70% | < 70% | < 70% | < 70% | < 70% | < 70% | < 70% | < 70% | < 70% | < 70% | 95% | Papp [29]: 5.7 ×10⁻⁶ cm/s; inhibition [23]: < 70%; inhibition [24]: < 70%; solubility kinetic [25]: 190 µM (≈ 98.2 µg/mL); inhibition [26]: < 70%; inhibition [27]: < 70%; inhibition [28]: < 70% |

— ChEMBL document CHEMBL4265899, “Trisubstituted thiazoles as potent and selective inhibitors of Plasmodium falciparum protein kinase G (PfPKG)” (Bioorg Med Chem Lett, 2018)
